# Source: patent US8269000B2, “Substituted pyrimidine and triazine compounds” (Gruenenthal GmbH, priority 2008, dated 2012)
# Counter-ions that a name gives are not always drawn.
# Key:
# rat B1R = biological target: T1, rat B1R (Rattus norvegicus, UniProt P97583); experiment: FLIPR Ca2+ functional study on bradykinin receptor 1 (rB1R CHO K1 cells); format: cell-based; conditions: CHO-K1, % inhibition rat B1R at 10 μM, read-out: % inh. (rat B1R) 10 μM
# T1 construct: expressed in transfected cells; host or cells: CHO K1 cells
# T1 sequence (P97583 1-337): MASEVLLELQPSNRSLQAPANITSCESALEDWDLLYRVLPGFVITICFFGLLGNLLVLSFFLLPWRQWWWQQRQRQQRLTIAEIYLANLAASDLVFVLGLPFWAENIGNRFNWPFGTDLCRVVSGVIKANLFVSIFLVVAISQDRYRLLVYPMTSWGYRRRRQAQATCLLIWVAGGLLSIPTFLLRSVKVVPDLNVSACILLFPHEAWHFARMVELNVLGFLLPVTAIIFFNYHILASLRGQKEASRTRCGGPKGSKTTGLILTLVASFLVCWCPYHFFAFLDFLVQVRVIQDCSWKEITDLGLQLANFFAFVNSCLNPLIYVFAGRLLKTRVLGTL
# Method in brief: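 CHO K1 cells stably expressing human or rat B1R were loaded with Fluo-4 and read on FLIPR (ex 488/em 540 nm, peak counts). Test compound (10 μM, or a concentration range for IC50) was added first for % activation versus control agonist; after 10-20 min, EC80 Lys-Des-Arg9-bradykinin (human) or Des-Arg9-bradykinin (rat) was added, giving % inhibition of maximum. n=2-3, N≥2.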
# human B1R = biological target: T2, human B1R (Homo sapiens, UniProt P46663); experiment: FLIPR Ca2+ functional study on bradykinin receptor 1 (hB1R CHO K1 cells); format: cell-based; conditions: % inhibition human B1R at 10 μM, read-out: % inh. (hum. B1R) 10 μM
# T2 construct: expressed in transfected cells; host or cells: CHO K1 cells
# T2 sequence (P46663 1-353): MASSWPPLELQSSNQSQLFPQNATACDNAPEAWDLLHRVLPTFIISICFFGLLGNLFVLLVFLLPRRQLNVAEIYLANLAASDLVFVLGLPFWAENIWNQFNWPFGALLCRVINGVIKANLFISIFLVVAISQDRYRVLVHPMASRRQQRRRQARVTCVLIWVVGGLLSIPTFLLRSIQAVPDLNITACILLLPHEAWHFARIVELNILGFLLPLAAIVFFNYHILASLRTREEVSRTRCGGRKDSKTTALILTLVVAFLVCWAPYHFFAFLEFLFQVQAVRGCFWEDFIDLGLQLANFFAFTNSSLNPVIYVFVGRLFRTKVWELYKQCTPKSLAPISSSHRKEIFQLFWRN
# Description: The agonistic or antagonistic activity of substances can be quantified on the bradykinin receptor 1 (B1R) of the species human and rat using ectopically expressing cell lines (CHO K1 cells) and with the aid of a Ca^2+-sensitive dye (Fluo-4) using a fluorescent imaging plate reader (FLIPR). The indication in % activation is based on the Ca^2+ signal after addition of Lys-Des-Arg^9-bradykinin (0.5 nM) or Des-Arg^9-bradykinin (100 nM). Antagonists lead to suppression of the Ca^2+ influx after the addition of the agonist. % Inhibition compared with the maximum achievable inhibition is indicated.
# The agonistic or antagonistic activity of substances can be determined on the bradykinin receptor 1 (B1R) of the species human and rat using the following assay. According to this assay, the Ca^2+ influx through the channel is quantified with the aid of a Ca^2+-sensitive dye (Fluo-4 type, Molecular Probes Europe BV, Leiden, Netherlands) using a Fluorescent Imaging Plate Reader (FLIPR, Molecular Devices, Sunnyvale, USA).
# Chinese hamster ovary cells (CHO K1 cells) which have been stably transfected with the human B1R gene (hB1R cells) or with the B1R gene of the rat (rB1R cells) are used. For functional studies, the cells are plated out on black 96-well plates having a clear base (BD Biosciences, Heidelberg, Germany or Greiner, Frickenhausen, Germany) in a density of 20,000-35,000 cells/well. The cells are left overnight at 37° C. and with 5% CO2 in culture medium (hB1R cells: Nutrient Mixture Ham's F12, Gibco Invitrogen GmbH, Karlsruhe, Germany or DMEM, Sigma-Aldrich, Taufkirchen, Germany; rB1R cells: D-MEM/F12, Gibco Invitrogen GmbH, Karlsruhe, Germany), with 10 vol.% FBS (fetal bovine serum, Gibco Invitrogen GmbH, Karlsruhe, Germany or PAN Biotech GmbH, Aidenbach, Germany). On the following day, the cells are loaded for 60 minutes at 37° C. with 2.13 μM Fluo-4 (Molecular Probes Europe BV, Leiden, Netherlands) in HBSS buffer (Hank's buffered saline solution, Gibco Invitrogen GmbH, Karlsruhe, Germany) […] (Sigma-Aldrich, Taufkirchen, Germany) and 10 mM HEPES (Sigma-Aldrich, Taufkirchen, Germany). The plates are then washed twice with HBSS buffer, and HBSS buffer additionally containing 0.1% BSA (bovine serum albumin; Sigma-Aldrich, Taufkirchen, Germany), 5.6 mM glucose and 0.05% gelatin (Merck KGaA, Darmstadt, Germany) is added to the plates. After incubation for a further 20 minutes at room temperature, the plates are inserted into the FLIPR for Ca^2+ measurement. Alternatively, washing is carried out with buffer A (15 mM HEPES, 80 mM NaCl, 5 mM KCl, 1.2 mM CaCl2, 0.7 mM MgSO4, 2 g/l glucose, 2.5 mM probenecid) followed by loading with buffer A with added 2.5 μM Fluo-4 and 0.025% Pluronic F127 (Sigma-Aldrich, Taufkirchen, Germany). The cells are then washed twice with buffer A and incubated for 30 minutes at room temperature with buffer A additionally containing 0.05% BSA and 0.05% gelatin and are then inserted into the FLIPR for Ca^2+ measurement. The Ca^2+-dependent fluorescence is measured before and after the addition of substances (λex=488 nm, λem=540 nm). Quantification is carried out by measuring the highest fluorescence intensity (FC, fluorescence counts) over time.
# The FLIPR protocol consists of two substance additions. Test substances (10 μM) are first pipetted onto the cells and the Ca^2+ influx is compared with the control (hB1R: Lys-Des-Arg^9-bradykinin>=50 nM; rB1R: Des-Arg^9-bradykinin 10 μM). This gives the activation in %, based on the Ca^2+ signal after addition of Lys-Des-Arg^9-bradykinin (>=50 nM) or Des-Arg^9-bradykinin (10 μM). After 10-20 minutes' incubation, Lys-Des-Arg^9-bradykinin (hB1R) or Des-Arg^9-bradykinin (rB1R) is applied in the concentration of the EC80, and the influx of Ca^2+ is likewise determined. Antagonists lead to suppression of the Ca^2+ influx. The % inhibition compared with the maximum achievable inhibition is calculated. […]
inhibition at 10 µM (rat B1R) [%],inhibition at 10 µM (human B1R) [%],Structure (SMILES)
102,92,"COc1cc(C)c(S(=O)(=O)N(CCOc2nccc(N3CCc4cc(CN5CCC5)ccc4C3)n2)C2CC2)c(C)c1 [Example G-013, N-[2-[[4-[6-(1-azetidinylmethyl)-3,4-dihydro-1H-isoquinolin-2-yl]-2-pyrimidinyl]oxy]ethyl]-N-cyclopropyl-4-methoxy-2,6-dimethylbenzenesulfonamide]"
103,100,"COc1cc(C)c(S(=O)(=O)NC2(COc3nccc(N4CCC5(CCN(c6ccncc6)CC5)CC4)n3)CCC2)c(C)c1 [Example G-022, 4-methoxy-2,6-dimethyl-N-[1-[[4-(9-pyridin-4-yl-3,9-diazaspiro[5.5]undecan-3-yl)-pyrimidin-2-yl]oxy-methyl]-cyclobutyl]-benzenesulfonic acid amide]"
89,98,"O=S(=O)(c1ccccc1C(F)(F)F)N(CCOc1nccc(N2CCC3(CCN(c4ccncc4)CC3)CC2)n1)C1CC1 [Example G-010, N-cyclopropyl-N-[2-[[4-[9-(4-pyridyl)-3,9-diazaspiro[5.5]undecan-3-yl]-2-pyrimidinyl]oxy]ethyl]-2-(trifluoromethyl)benzenesulfonamide]"
107,94,"COc1cc(C)c(S(=O)(=O)N(CCOc2nccc(N3CCC4(CC3)CCC(OCCN3CCCC3)(c3cccnc3)CC4)n2)C2CC2)c(C)c1 [Example G-023, N-cyclopropyl-4-methoxy-2,6-dimethyl-N-[2-[4-[9-pyridin-3-yl-9-(2-pyrrolidin-1-yl-ethoxy)-3-azaspiro[5.5]undecan-3-yl]-pyrimidin-2-yl]oxy-ethyl]-benzenesulfonic acid amide]"
96,99,"COc1cc(C)c(S(=O)(=O)N(CCOc2nccc(N3CCC4(CCN(c5ccncc5)CC4)CC3)n2)C2CC2)c(C)c1 [Example G-005, N-cyclopropyl-4-methoxy-2,6-dimethyl-N-[2-[[4-[9-(4-pyridyl)-3,9-diazaspiro[5.5]undecan-3-yl]-2-pyrimidinyl]oxy]ethyl]benzenesulfonamide hydrochloride]"
88,98,"COc1cc(C)c(S(=O)(=O)N(CCOc2cc(N3CCC4(CCN(c5ccncc5)CC4)CC3)ncn2)C2CC2)c(C)c1 [Example I-001, N-cyclopropyl-4-methoxy-2,6-dimethyl-N-[2-[[6-[9-(4-pyridyl)-3,9-diazaspiro[5.5]undecan-3-yl]-4-pyrimidinyl]oxy]ethyl]benzenesulfonamide]"
98,77,"COc1cc(C)c(S(=O)(=O)N(CCOc2nccc(N3CCC(O)(c4cccnc4)CC3)n2)C2CC2)c(C)c1 [Example G-008, N-cyclopropyl-N-[2-[[4-[4-hydroxy-4-(3-pyridyl)-1-piperidinyl]-2-pyrimidinyl]oxy]ethyl]-4-methoxy-2,6-dimethylbenzenesulfonamide]"
93,99,"COc1cc(C)c(S(=O)(=O)N2CC(Oc3nccc(N4CCC5(CCN(c6ccncc6)CC5)CC4)n3)C2)c(C)c1 [Example G-018, 3-[2-[[1-(4-methoxy-2,6-dimethylphenyl)sulfonyl-3-azetidinyl]oxy]-4-pyrimidinyl]-9-(4-pyridyl)-3,9-diazaspiro[5.5]undecane]"
100,96,"COc1cc(C)c(S(=O)(=O)N2CCC[C@H]2COc2nccc(N3CCC(CCN4CCCC4)CC3)n2)c(C)c1 [G_CC-016, 2-[[(2S)-1-(4-methoxy-2,6-dimethylphenyl)sulfonyl-2-pyrrolidinyl]methoxy]-4-[4-(2-1-pyrrolidinylethyl)-1-piperidinyl]pyrimidine]"
88,17,"COc1cc(C)c(S(=O)(=O)N(C)C(COc2nccc(N3CCC4(CCN(Cc5ccc(F)cc5)C4=O)CC3)n2)c2ccccc2)c(C)c1 (stereo not shown) [G_CC-060, N-[2-[[4-[3-[(4-fluorophenyl)methyl]-4-oxo-3,8-diazaspiro[4.5]decan-8-yl]-2-pyrimidinyl]oxy]-1-phenylethyl]-4-methoxy-N,2,6-trimethylbenzenesulfonamide]"
104,100,"COc1cc(C)c(S(=O)(=O)N2CCC[C@H]2COc2nccc(N3CCN(c4ccncc4)CC3)n2)c(C)c1 [G_CC-019, 2-[[(2S)-1-(4-methoxy-2,6-dimethylphenyl)sulfonyl-2-pyrrolidinyl]methoxy]-4-[4-(4-pyridyl)-1-piperazinyl]pyrimidine]"
92,64,"Cc1cccc(Cl)c1S(=O)(=O)N(CCOc1ccnc(N2CCC3(CCN(c4ccncc4)CC3)CC2)n1)C1CC1 [Example H-006, 2-chloro-N-cyclopropyl-6-methyl-N-[2-[[2-[9-(4-pyridyl)-3,9-diazaspiro[5.5]undecan-3-yl]-4-pyrimidinyl]oxy]ethyl]benzenesulfonamide]"
97,99,"COc1cc(C)c(S(=O)(=O)N(CCOc2nccc(N3CCC(Oc4ccncc4)CC3)n2)C2CC2)c(C)c1 [Example G-012, N-cyclopropyl-4-methoxy-2,6-dimethyl-N-[2-[[4-[4-(4-pyridyloxy)-1-piperidinyl]-2-pyrimidinyl]oxy]ethyl]benzenesulfonamide]"
91,97,"Cc1cccc(Cl)c1S(=O)(=O)N(CCOc1nccc(N2CCC3(CCN(c4ccncc4)CC3)CC2)n1)C1CC1 [Example G-009, 2-chloro-N-cyclopropyl-6-methyl-N-[2-[[4-[9-(4-pyridyl)-3,9-diazaspiro[5.5]undecan-3-yl]-2-pyrimidinyl]oxy]ethyl]benzenesulfonamide]"
